Patent US10851082B2, “Substituted aromatic n-heterocyclic compounds as inhibitors of mitogen-activated protein kinase interacting kinase 1 (MNK1) and 2 (MNK2)” (Northwestern University, priority 2015, dated 2020)
Like-named read-outs stand apart in the source and are kept apart here.

Assays:
Mnk1 [1] = experiment: Cellular inhibition of Mnk1, flow cytometry of phospho-eIF-4E (Ser209), MV4-11 cells; type: cell-based
Procedure: (§1) To evaluate inhibition of Mnk1 in cells, we utilized a flow cytometry-based assay based on activation of eIF-4E, the downstream target of Mnk1. The assay utilizes flow cytometry to quantitatively measure the amount of eIF-4E that is phosphorylated at residue Ser209 in cell lysate from U937 or MV4-11 cell lines. Cells grown in the presence of serum were treated with vehicle or test compounds across a range of concentrations. Levels of phospho-eIF-4E were measured and IC50 values were determined by logistic regression to quantify the potency of each compound.

MV4-11 cells = experiment: Cell viability assay (CellTiter-Glo), MV4-11; type: cell-based; conditions: Homo sapiens
Procedure: (§2) To measure the ability of the new Mnk1/2 inhibitors to kill cancer cells in vitro, U937 or MV4-11 cells were incubated with different concentrations of test compounds and analyzed for apoptosis and cell viability at 5 and 24 hours post-treatment.

U937 cells = experiment: Cell viability assay (CellTiter-Glo), U937; type: cell-based; conditions: Homo sapiens
Procedure: as §2

Mnk1 [2] = experiment: Cellular inhibition of Mnk1, flow cytometry of phospho-eIF-4E (Ser209), U937 cells; type: cell-based
Procedure: as §1

Mnk1 [3] = target: T1, Mnk1 (Homo sapiens (Human), UniProt Q9BUB5); experiment: Mnk1 kinase inhibition, ADP-Glo ADP monitoring assay; type: biochemical
Target sequence in this assay (Q9BUB5 whole entry): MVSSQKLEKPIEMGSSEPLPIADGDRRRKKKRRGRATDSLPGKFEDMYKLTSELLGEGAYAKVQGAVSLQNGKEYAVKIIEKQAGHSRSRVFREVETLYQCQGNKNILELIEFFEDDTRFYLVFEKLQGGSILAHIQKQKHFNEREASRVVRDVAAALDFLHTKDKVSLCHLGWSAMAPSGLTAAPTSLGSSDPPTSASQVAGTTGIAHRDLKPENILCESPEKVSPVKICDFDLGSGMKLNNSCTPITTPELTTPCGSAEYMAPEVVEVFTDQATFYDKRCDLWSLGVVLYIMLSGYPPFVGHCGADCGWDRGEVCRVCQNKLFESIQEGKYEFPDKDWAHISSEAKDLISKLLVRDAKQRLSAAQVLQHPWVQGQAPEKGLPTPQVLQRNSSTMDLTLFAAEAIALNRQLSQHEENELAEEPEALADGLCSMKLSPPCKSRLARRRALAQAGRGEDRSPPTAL
Procedure: (§3) The synthesized compounds then were tested for inhibition of the kinase activity (IC50) of Mnk1 and/or Mnk2 using the ADP monitoring assay for kinases described in Zegzouti, H.; Zdanovskaia, M.; Hsiao, K.; Goueli, S. A., ADP-Glo: A Bioluminescent and homogeneous ADP monitoring assay for kinases.

Mnk2 = Mnk2 (Homo sapiens (Human), UniProt Q9HBH9); experiment: Mnk2 kinase inhibition, ADP-Glo ADP monitoring assay; type: biochemical
Sequence of Mnk2 (Q9HBH9 whole entry): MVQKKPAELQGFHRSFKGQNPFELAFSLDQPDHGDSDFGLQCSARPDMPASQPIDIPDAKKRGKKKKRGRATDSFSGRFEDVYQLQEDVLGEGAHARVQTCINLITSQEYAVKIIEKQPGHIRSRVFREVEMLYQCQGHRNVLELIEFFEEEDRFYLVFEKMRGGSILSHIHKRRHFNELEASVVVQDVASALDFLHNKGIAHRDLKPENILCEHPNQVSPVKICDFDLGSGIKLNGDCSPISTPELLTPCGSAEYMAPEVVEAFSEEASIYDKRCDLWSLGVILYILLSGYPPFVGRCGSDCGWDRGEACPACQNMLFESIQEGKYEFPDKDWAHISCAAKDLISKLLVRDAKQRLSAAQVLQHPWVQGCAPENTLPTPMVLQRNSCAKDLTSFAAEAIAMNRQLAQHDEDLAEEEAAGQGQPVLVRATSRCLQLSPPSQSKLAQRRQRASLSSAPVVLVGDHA
Procedure: as §3

Mnk1 [4] = target: T1, Mnk1; experiment: Cellular inhibition of Mnk1, flow cytometry of phospho-eIF-4E (Ser209), MV4-11 cells; type: cell-based; conditions: phospho-eIF-4E Ser209, flow cytometry, read-out: MV4-11 pEIF4E IC50
Target sequence in this assay (Q9BUB5 whole entry, looked up): as the sequence (Q9BUB5 whole entry) above
Procedure: as §1

Mnk1 [5] = target: T1, Mnk1; experiment: Cellular inhibition of Mnk1, flow cytometry of phospho-eIF-4E (Ser209), U937 cells; type: cell-based; conditions: phospho-eIF-4E Ser209, flow cytometry, read-out: U937 pEIF4E IC50
Target sequence in this assay (Q9BUB5 whole entry, looked up): as the sequence (Q9BUB5 whole entry) above
Procedure: as §1

[6] = read-out: MV4-11 pEIF4E IC50, phospho-eIF-4E Ser209, flow cytometry
[7] = MV4-11 cells, ATP levels with CellTiter-Glo, read-out: MV4-11 viability EC50
[8] = U-937, U937 cells, ATP levels with CellTiter-Glo, read-out: U937 viability EC50
[9] = read-out: U937 pEIF4E IC50, phospho-eIF-4E Ser209, flow cytometry
[10] = ADP-Glo kinase assay, read-out: Mnk2 IC50
[11] = MV4-11, read-out: MV4-11 viability EC50
[12] = U-937, read-out: U937 viability EC50
[13] = read-out: MV4-11 pEIF4E cellular flow IC50 (+,++,+++), flow cytometry
[14] = ADP-Glo kinase assay, read-out: Mnk2 inhibition IC50 (+,++,+++)
[15] = read-out: Mnk1 inhibition IC50 (+,++,+++)
[16] = read-out: U937 pEIF4E cellular flow IC50 (+,++,+++), flow cytometry

| Compound | EC50 (MV4-11 cells; [7]) | EC50 (U937 cells; [8]) | IC50 (Mnk1 [3]; read-out: Mnk1 IC50) | IC50 (Mnk2; [10]) | IC50 (Mnk2; [14]) | IC50 (Mnk1 [3]; [15]) | further results |
| --- | --- | --- | --- | --- | --- | --- | --- |
| Clc1cccc(-n2cc(-c3ccnc(NCCc4c[nH]cn4)n3)cn2)c1 [NUCC-0054135] | 240 nM | 3400 nM | 6000 nM |  |  |  | IC50 (Mnk1 [1]; [6]): 66 nM; IC50 (Mnk1 [2]; [9]): 81 nM |
| CCn1cncc1CNc1nccc(-c2cnn(-c3cccc(OC)c3)c2)n1 [NUCC-0054136] | 4500 nM | 10000 nM | 10000 nM |  |  |  | IC50 (Mnk1 [1]; [6]): 100 nM; IC50 (Mnk1 [2]; [9]): 140 nM |
| CN(C)CCNc1nccc(-c2cnn(C)c2)n1 [NUCC-0060898] | 190 nM | 13000 nM | 5000 nM |  |  |  | IC50 (Mnk1 [1]; [6]): 35 nM; IC50 (Mnk1 [2]; [9]): 42 nM |
| c1ccc2c(c1)ccn2-c1ccnc(NCCc2ccncc2)n1 [NUCC-0060954] | 410 nM | 2600 nM |  |  |  |  |  |
| c1ccc2c(c1)ncn2-c1ccnc(NCCc2ccncc2)n1 [NUCC-0060957] | 120 nM | 5300 nM |  |  |  |  |  |
| c1ccc2c(c1)ccn2-c1ccnc(NCCc2cnc[nH]2)n1 [NUCC-0060958] |  |  | 900 nM | 95 nM |  |  | IC50 (Mnk1 [1]; [6]): 47 nM; IC50 (Mnk1 [2]; [9]): 230 nM |
| c1ccc2c(c1)ncn2-c1ccnc(NC2CCOC2)n1 (stereo not shown) [NUCC-0125583] | 620 nM | > 10000 nM |  | 9.5 nM |  |  |  |
| c1ccc2c(c1)ncn2-c1ccnc(Nc2ccncc2)n1 [NUCC-0125585] | 310 nM | 10000 nM | 140 nM |  |  |  | IC50 (Mnk1 [1]; [6]): 40 nM; IC50 (Mnk1 [2]; [9]): 51 nM |
| c1ccc2c(c1)ncn2-c1ccnc(NC2CCNC2)n1 (stereo not shown) [NUCC-0125592] | 80 nM | > 10000 nM | 150 nM | 40 nM |  |  | IC50 (Mnk1 [1]; [6]): 69 nM; IC50 (Mnk1 [2]; [9]): 1100 nM |
| Clc1cnc(NCCc2cnc[nH]2)nc1-n1cnc2ccccc21 [NUCC-0175695] | 1000 nM | > 10000 nM | 530 nM | 72 nM |  |  | IC50 (Mnk1 [1]; [6]): 370 nM; IC50 (Mnk1 [2]; [9]): 630 nM |
| Clc1cnc(NCCc2ccncc2)nc1-n1cnc2ccccc21 [NUCC-0175697] | 350 nM | 7000 nM |  |  |  |  |  |
| O[C@@H]1CC[C@H](Nc2nccc(-n3cnc4ccccc43)n2)C1 [NUCC-0176144] |  |  | 150 nM | 28 nM |  |  | IC50 (Mnk1 [4]): 78 nM; EC50 (MV4-11 cells; [11]): 170 nM; EC50 (U937 cells; [12]): 5700 nM; IC50 (Mnk1 [5]): 78 nM |
| c1ccc2c(c1)ncn2-c1ccnc(N[C@H]2CCOC2)n1 [NUCC-0176148] | 440 nM | > 10000 nM |  | 46 nM |  |  |  |
| O[C@H]1CC[C@H](Nc2nccc(-n3cnc4ccccc43)n2)C1 [NUCC-0176163] |  |  | 200 nM | 41 nM |  |  | IC50 (Mnk1 [4]): 74 nM; EC50 (MV4-11 cells; [11]): 220 nM; EC50 (U937 cells; [12]): 8100 nM; IC50 (Mnk1 [5]): 75 nM |
| O[C@H]1CC[C@@H](Nc2nccc(-n3cnc4ccccc43)n2)C1 [NUCC-0176164] |  |  | 100 nM | 26 nM |  |  | IC50 (Mnk1 [4]): 36 nM; EC50 (MV4-11 cells; [11]): 180 nM; EC50 (U937 cells; [12]): > 10000 nM; IC50 (Mnk1 [5]): 62 nM |
| Fc1cnc(NCCc2ccncc2)nc1-n1cnc2ccccc21 [NUCC-0176281] | 240 nM | 3400 nM | 330 nM | 49 nM |  |  | IC50 (Mnk1 [1]; [6]): 66 nM; IC50 (Mnk1 [2]; [9]): 81 nM |
| FC(F)(F)c1cnc(NCCc2ccncc2)nc1-n1cnc2ccccc21 [NUCC-0176282, 4-(1H-benzo[d]imidazol-1-yl)-N-(2-(pyridin-4-yl)ethyl)-5-(trifluoromethyl)pyrimidin-2-amine] | 4500 nM | 10000 nM | 93 nM | 28 nM |  |  | IC50 (Mnk1 [1]; [6]): 100 nM; IC50 (Mnk1 [2]; [9]): 140 nM |
| c1cncc(CCNc2ccnc(-n3cnc4ccccc43)n2)c1 [NUCC-0176341] |  |  | 210 nM | 26 nM |  |  | IC50 (Mnk1 [4]): 35 nM; EC50 (MV4-11 cells; [11]): 190 nM; EC50 (U937 cells; [12]): 13000 nM; IC50 (Mnk1 [5]): 42 nM |

| Compound | EC50 (MV4-11 cells; [7]) | EC50 (U937 cells; [8]) | IC50 (Mnk1 [3]; read-out: Mnk1 IC50) | IC50 (Mnk2; [10]) | IC50 (Mnk2; [14]) | IC50 (Mnk1 [3]; [15]) | further results |
| --- | --- | --- | --- | --- | --- | --- | --- |
| N#Cc1cnc(NCCc2ccncc2)nc1-n1cnc2ccccc21 [NUCC-0176343] | 410 nM | 2600 nM |  |  |  |  |  |
| Clc1cnc(OCCc2ccncc2)nc1-n1cnc2ccccc21 [NUCC-0196254, 1-(5-chloro-2-(2-(pyridin-4-yl)ethoxy)pyrimidin-4-yl)-1H-benzo[d]imidazole] |  |  |  |  | < 1000 nM | < 1000 nM | IC50 (Mnk1 [1]; [13]): < 1000 nM; IC50 (Mnk2; ADP-Glo kinase assay, unit inferred, read-out: Mnk2 IC50): 9.6 nM; IC50 (Mnk1 [3]; unit inferred, read-out: Mnk1 IC50): 54 nM |
| N#Cc1cnc(OCCc2ccncc2)nc1-n1cnc2ccccc21 [NUCC-0200786] |  |  |  |  | < 1000 nM | < 1000 nM | IC50 (Mnk1 [1]; [13]): < 1000 nM; IC50 (Mnk1 [2]; [16]): < 1000 nM |
| N#Cc1cnc(OCCN2CCCC2=O)nc1-n1cnc2ccccc21 [NUCC-0200788] |  |  |  |  | < 1000 nM | < 1000 nM | IC50 (Mnk1 [1]; [13]): < 1000 nM; IC50 (Mnk1 [2]; [16]): < 1000 nM |
| N#Cc1cnc(OCCc2ccccn2)nc1-n1cnc2ccccc21 [NUCC-0200790] |  |  |  |  | < 1000 nM | < 1000 nM | IC50 (Mnk1 [1]; [13]): < 1000 nM; IC50 (Mnk1 [2]; [16]): < 1000 nM |
| N#Cc1cnc(OC2CCOC2)nc1-n1cnc2ccccc21 (stereo not shown) [NUCC-0200792] |  |  |  |  | < 1000 nM | < 1000 nM | IC50 (Mnk1 [1]; [13]): < 1000 nM; IC50 (Mnk1 [2]; [16]): < 1000 nM |
| N#Cc1cnc(OC2CCNC2)nc1-n1cnc2ccccc21 (stereo not shown) [NUCC-0200793] |  |  |  |  | < 1000 nM | < 1000 nM | IC50 (Mnk1 [1]; [13]): < 1000 nM; IC50 (Mnk1 [2]; [16]): < 1000 nM |
| Clc1cnc(OC2CCCOC2)nc1-n1cnc2ccccc21 (stereo not shown) [NUCC-0200803] |  |  |  |  | < 1000 nM | < 1000 nM | IC50 (Mnk1 [1]; [13]): < 1000 nM; IC50 (Mnk1 [2]; [16]): < 1000 nM |
| Clc1cnc(OCCc2ccccn2)nc1-n1cnc2ccccc21 [NUCC-0200807] |  |  |  |  | < 1000 nM | < 1000 nM | IC50 (Mnk1 [1]; [13]): < 1000 nM; IC50 (Mnk1 [2]; [16]): < 1000 nM |
| O=C1CCCN1CCOc1ncc(Cl)c(-n2cnc3ccccc32)n1 [NUCC-0200811] |  |  |  |  | < 1000 nM | < 1000 nM | IC50 (Mnk1 [1]; [13]): < 1000 nM; IC50 (Mnk1 [2]; [16]): < 1000 nM |
| N#Cc1cnc(OC2CC(N)C2)nc1-n1cnc2ccccc21 (stereo not shown) [NUCC-0200907, 2-(3-aminocyclobutoxy)-4-(1H-benzo[d]imidazol-1-yl)pyrimidine-5-carbonitrile] |  |  |  |  | < 1000 nM | < 1000 nM | IC50 (Mnk1 [1]; [13]): < 1000 nM; IC50 (Mnk1 [2]; [16]): < 1000 nM |
| NC1CC(Oc2nc(C3CC3)c(Cl)c(-n3cnc4ccccc43)n2)C1 (stereo not shown) [NUCC-0201915, 3-((4-(1H-benzo[d]imidazol-1-yl)-5-chloro-6-cyclopropylpyrimidin-2-yl)oxy)cyclobutanamine] |  |  |  |  |  | 1000 to 10000 nM | IC50 (Mnk2): 1000 to 10000 nM |
| CCc1nc(OC2CC(N)C2)nc(-n2cnc3ccccc32)c1Cl (stereo not shown) [NUCC-0201916] |  |  |  |  |  | 1000 to 10000 nM | IC50 (Mnk2): 1000 to 10000 nM |
| CC(C)(COc1ncc(C#N)c(-n2cnc3ccccc32)n1)c1ccnc(F)c1 [NUCC-0201917] |  |  |  |  | < 1000 nM | < 1000 nM |  |
| N#Cc1cnc(OCCc2ccnc(F)c2)nc1-n1cnc2ccccc21 [NUCC-0201918] |  |  |  |  | < 1000 nM | < 1000 nM |  |
| CC(C)(COc1ncc(Cl)c(OCC(C)(C)c2ccnc(F)c2)n1)c1ccnc(F)c1 [NUCC-0201919] |  |  |  |  |  | 1000 to 10000 nM | IC50 (Mnk2): 1000 to 10000 nM |
| CC(C)(COc1nc(-n2cnc3ccccc32)ncc1Cl)c1ccnc(F)c1 [NUCC-0201920] |  |  |  |  | < 1000 nM | < 1000 nM |  |
